In test [1] the test system is MEPCE. Description: Western blot of MEPCE protein in NCI-H929 cells (FIG. 4). It counts as cell-based. On the procedure: After treatment with a CDKI, cells were lysed in modified RIPA buffer containing 50 mM TRIS pH 7.4, 150 mM NaCl, 1 mM EDTA, 1% Brij-35, 0.1% deoxycholate, protease inhibitors (Roche Molecular Biochemicals, Mannheim, Germany). SDS-PAGE (4-12% gel) was used to resolve the proteins in the lysate. After electrophoresis, the proteins were electrotransferred onto a polyvinylidene fluoride microporous membrane and immunodetected using standard procedures. FIG. 4 is a Western blot of the multiple myeloma line NCI-H929, treated with CDKI(7) or DMSO and gene expression analyzed at certain time points during the treatment. […] Thus, the reduction in expression of genes in response to CDKI seen at the mRNA level by microarray is confirmed at the protein level by Western blotting.
Background: A western blot detects proteins with antibodies after separation by electrophoresis.

The test system of test [2] is MEPCE. The test can be described thus: Dog toxicology study, TaqMan mRNA in white blood cells after CDKI(7): MEPCE. It counts as in vivo. As for the experimental part:
As part of a dog toxicology study, CDKI(7) was administered to dogs. White blood cells were harvested and MEPCE, MYC and MCL1 gene expression was assessed as PD markers. mRNA levels of each of these PD markers were measured by TaqMan® at various time points after CDKI(7) treatment.
The study had three groups of three dogs each. Dogs in Group 1 (#101, #102, and #103) were treated with CDKI(7) at 0.5 mg/kg, dogs in Group 2 (#104, #105, and #106) were treated at 1 mg/kg CDKI(7) and dogs in Group 3 (#107, #108, and #109) were treated at 2 mg/kg CDKI(7). Samples were collected before treatment (0 hour), 3 hours, 7 hours and 24 hours after treatment for a total of 12 samples per group. Blood samples were received frozen in QIAGEN RNA protect® Animal Blood tubes (Cat. # 76554 QIAGEN-Valencia, Calif., USA). RNA samples were extracted using the QIAGEN RNeasy® Protect Animal Blood kit (Cat. # 73224). RNA samples were quantified using the RNA Quant-iT RNA® assay from Invitrogen (Cat. # Q32852 Invitrogen—Grand Island, N.Y., USA) and read on an Invitrogen Qubit fluorometer® (Cat. # Q32857). First strand cDNA synthesis was performed on 500 ng of RNA in a reaction volume of 20 μl using a High Capacity cDNA Reverse Transcription Kit® from Applied Biosystems (Cat. # 4368814 Applied Biosystems, Carlsbad, Calif., USA). The cDNA samples were then diluted to obtain a 10 ng cDNA input for the TaqMan® reaction. TaqMan® reactions were run in triplicates using a TaqMan® Gene Expression Master Mix from Applied Biosystems (Cat. # 4369016) on an ABI 7500® machine. The 18S rRNA level was used as an endogenous control for variations in cDNA input. The relative quantification method was used to analyze the data; this method uses one sample as a calibrator sample and express mRNA levels relative to that sample. The results were expressed as RQ values (Relative Quantification) with RQ Min and RQ Max values determining a 95% confidence interval for the real RQ value. The samples were grouped according to the dose and each group was treated as a separate experiment with one of the pre-dose samples used as a calibrator sample. The logarithm of the RQ values are plotted so that increases or decreases from the initial value can be more easily represented; on a logarithmic scale: a 10-fold increase or 10-fold decrease in RQ value are represented as +1 and −1 respectively.
The mRNA levels were determined by TaqMan® using the relative quantification method. The calibrator samples are dog #101 at 0 hour timepoint for the 0.5 mg/kg dose of CDKI(7), dog #104 at 0 hour timepoint for the 1 mg/kg dose and dog #107 at 0 hour timepoint for the CDKI(7) 2 mg/kg dose. The logarithm (base 10) of the RQ values is plotted with the error bars representing the 95% confidence interval. […] The amplitude and the duration of the down regulation are dose-dependent; at 0.5 mg/kg CDKI(7) the maximum down regulation is 3.2-fold at 3 hours, at 1 mg/kg CDKI(7) it is 5.2-fold at 7 hours and at 2 mg/kg it is 14-fold at 7 hours.
Background: In qPCR the cycle at which signal appears reflects the starting amount.

Regarding `O=C(Nc1cc(-c2cccc(NCC3CCOCC3)n2)c(Cl)cn1)[C@@H]1CCCNC1` [CDKI(7)], the “MEPCE protein expression at the 16 hour time point” value in the test on MEPCE [1] (NCI-H929, Western blot, 16 hour) is given as “very little to undetectable levels of protein expression”. Moreover, the “MEPCE protein expression over time” value in the test with MEPCE [1] (NCI-H929 multiple myeloma line, Western blot, versus DMSO) was “reduced over time”. The “maximum down regulation of MEPCE mRNA” value with MEPCE [2] (0.5 mg/kg, at 3 hours) is listed as 3.2 fold; in the test on MEPCE [2] (1 mg/kg, at 7 hours), 5.2 fold; in the test with MEPCE [2] (2 mg/kg, at 7 hours), 14 fold. Also, the “MEPCE mRNA levels at 24 hours” value with MEPCE [2] (2 mg/kg, one of the dogs (#109)) is “some degree of down regulation”; in the test on MEPCE [2] (0.5 and 1 mg/kg) it was “back to pre-treatment levels”. In addition, the “MEPCE mRNA regulation” value in the test with MEPCE [2] (all three doses (0.5, 1, 2 mg/kg), FIG. 6) is on record as “clear down regulation”.

For the origin of these results see US20140005070A1, “MARKERS ASSOCIATED WITH CYCLIN-DEPENDENT KINASE INHIBITORS” (Novartis AG, priority 2011, published 2014).
